Measurements reported in patent publication US20220135526A1, “QUATERNARY AMMONIUM SALT COMPOUND, PREPARATION METHOD THEREFOR AND USE THEREOF” (WEST CHINA HOSPITAL, SICHUAN UNIVERSITY, priority 2019, published 2022).
Structures can show the parent of a compound that is named as a salt.

Columns and labels:
rat's sciatic nerve = test: Local anesthetic effect after injection near the rat sciatic nerve (von Frey stimulation; Postural Extensor Thrust for motor function); assay type: in vivo; conditions: SD rats, 0.5 mL near sciatic nerve, compounds 20 mmol/mL; for Duration of motor block: Postural Extensor Thrust; for Duration of motor block / Duration of sensory block: levobupivacaine 0.75%, lidocaine 2%; for Local anesthesia onset time: levobupivacaine 0.75% (22 mmol/L), lidocaine 2% (74 mmol/L); for Duration of sensory block: von Frey
Procedure: Dosage: for lidocaine group, lidocaine was formulated with distilled water into a solution at the concentration of 2% (74 mmol/L); for levobupivacaine group, levobupivacaine was formulated with distilled water into a solution at the concentration of 0.75% (22 mmol/L); the compound of the present invention was formulated with distilled water into a solution at the concentration of […].
The injection volume for each rat was 0.5 mL, which was guided by a nerve locator and injected near the rat's sciatic nerve. Using von Frey stimulator, the rats were stimulated the soles of the feet in the injected side, to observe the effect of local anesthesia. Meanwhile, Postural Extensor Thrust (PET) was used to evaluate the motor function of the rat: the rat was lifted vertically and the hindlimb in the injected side pedaled on the platform of the electronic balance. […] When the limb was completely paralyzed, the reading was the limb's own weight, about 20 g. If the measured value was more than half of the difference between the baseline and the limb weight, the motor function was regarded as recovery, and if the value was […], the motor function was regarded as loss.

back skin of SD rat = test: Local anesthetic effect by subcutaneous infiltration (back skin, Von Frey fiber 100 g); assay type: in vivo; conditions: SD rats, 0.5 mL subcutaneous in saline; compounds 6 mmol/L, controls 0.75% (22 mmol/L) and 2% (74 mmol/L)
Procedure: After the back of SD rat weighing 250-300 g (half female and half male) was shaved and disinfected, a circle with a diameter of about 1.5 cm was drawn on the side of the exposed back, and the circle is divided into 6 equal parts. […] Among the Von Frey fiber yarns, the one with a strength of 100 g was bound to the needle for local skin stimulation. One minute After the drug was injected, the above method was used to stimulate in 6 divisions. […] If back skin contraction was observed, the local anesthetic effect was considered as loss. […] Each compound was tested with 10 rats.

CCCCCC[N+](CCCCCC)(CCCN1CCCCC1C(=O)Nc1c(C)cccc1C)CC(=O)Nc1c(C)cccc1C (stereo not shown) [Example 73 product]
Duration of motor block (rat's sciatic nerve): 20 h | Local anesthesia onset time (rat's sciatic nerve): 3 min | Duration of sensory block (rat's sciatic nerve): 51 h | Duration of local anesthesia (median) (back skin of SD rat): 59 h | Local anesthesia onset time (median) (back skin of SD rat): 2 min

CCCCC[N+](CCO)(CCCCCCN1CCCC1C(=O)Nc1c(C)cccc1C)CC(=O)Nc1c(C)cccc1C (stereo not shown) [Example 59 product]
Duration of motor block (rat's sciatic nerve): 15 h | Local anesthesia onset time (rat's sciatic nerve): 1 min | Duration of sensory block (rat's sciatic nerve): 54 h | Duration of local anesthesia (median) (back skin of SD rat): 72 h | Local anesthesia onset time (median) (back skin of SD rat): 1 min

Cc1cccc(C)c1NC(=O)C[N+](CCCCO)(CCCCO)CCCCCCCCN1CCCCCCC1C(=O)Nc1c(C)cccc1C (stereo not shown) [Example 44 product]
Duration of motor block (rat's sciatic nerve): 16 h | Local anesthesia onset time (rat's sciatic nerve): 5 min | Duration of sensory block (rat's sciatic nerve): 69 h | Duration of local anesthesia (median) (back skin of SD rat): 51 h | Local anesthesia onset time (median) (back skin of SD rat): 2 min

CCCCN1CCCC[C@H]1C(=O)Nc1c(C)cccc1C [0.75% levobupivacaine hydrochloride, levobupivacaine hydrochloride, reference compound]
Duration of motor block (rat's sciatic nerve): 2.5 h | Local anesthesia onset time (rat's sciatic nerve): 1 min | Duration of sensory block (rat's sciatic nerve): 2.5 h | Duration of local anesthesia (median) (back skin of SD rat): 7 h | Local anesthesia onset time (median) (back skin of SD rat): 1 min

Cc1cccc(C)c1NC(=O)C[N+]1(CCCCN2CCCCC2C(=O)Nc2c(C)cccc2C)CC(C)OC(C)C1 (stereo not shown) [Example 50 product]
Duration of motor block (rat's sciatic nerve): 13 h | Local anesthesia onset time (rat's sciatic nerve): 5 min | Duration of sensory block (rat's sciatic nerve): 56 h | Duration of local anesthesia (median) (back skin of SD rat): 56 h | Local anesthesia onset time (median) (back skin of SD rat): 2 min

CCCCC[N+](CCCCC)(CCCCCCN1CCC1C(=O)Nc1c(C)cccc1C)CC(=O)Nc1c(C)cccc1C (stereo not shown) [Example 65 product]
Duration of motor block (rat's sciatic nerve): 19 h | Local anesthesia onset time (rat's sciatic nerve): 5 min | Duration of sensory block (rat's sciatic nerve): 59 h | Duration of local anesthesia (median) (back skin of SD rat): 68 h | Local anesthesia onset time (median) (back skin of SD rat): 1 min

CCCCC[N+](CCCCO)(CCCCCCN1CCC1C(=O)Nc1c(C)cccc1C)CC(=O)Nc1c(C)cccc1C (stereo not shown) [Example 64 product]
Duration of motor block (rat's sciatic nerve): 13 h | Local anesthesia onset time (rat's sciatic nerve): 3 min | Duration of sensory block (rat's sciatic nerve): 67 h | Duration of local anesthesia (median) (back skin of SD rat): 69 h | Local anesthesia onset time (median) (back skin of SD rat): 1 min

CCCCCC[N+](CCCCCC)(CCOCCOCCN1CCCCC1C(=O)Nc1c(C)cc(O)cc1C)CC(=O)Nc1c(C)cc(OC)cc1C (stereo not shown) [Example 4 product]
Duration of motor block (rat's sciatic nerve): 13 h | Local anesthesia onset time (rat's sciatic nerve): 7 min | Duration of sensory block (rat's sciatic nerve): 23 h | Duration of local anesthesia (median) (back skin of SD rat): 35 h | Local anesthesia onset time (median) (back skin of SD rat): 1 min

CCCCC[N+](CCCCO)(CCCCCCN1CCCCC1C(=O)Nc1c(C)cccc1C)CC(=O)Nc1c(C)cccc1C.[Br-] (stereo not shown) [Example 16 product]
Duration of motor block (rat's sciatic nerve): 17 h | Local anesthesia onset time (rat's sciatic nerve): 5 min | Duration of sensory block (rat's sciatic nerve): 60 h | Duration of local anesthesia (median) (back skin of SD rat): 54 h | Local anesthesia onset time (median) (back skin of SD rat): 2 min

CCCCC[N+](CCCCC)(CCCN1CCCCC1C(=O)Nc1c(C)cccc1C)CC(=O)Nc1c(C)cccc1C.Cl.[Br-] (stereo not shown) [Example 10 product]
Duration of motor block (rat's sciatic nerve): 19 h | Local anesthesia onset time (rat's sciatic nerve): 3 min | Duration of sensory block (rat's sciatic nerve): 25 h | Duration of local anesthesia (median) (back skin of SD rat): 56 h | Local anesthesia onset time (median) (back skin of SD rat): 1 min

CCCCCCC[N+](CCCCC)(CCOCCN1CCCCC1C(=O)Nc1c(C)cccc1C)CC(=O)Nc1c(C)cccc1C (stereo not shown) [Example 76 product]
Duration of motor block (rat's sciatic nerve): 14 h | Local anesthesia onset time (rat's sciatic nerve): 3 min | Duration of sensory block (rat's sciatic nerve): 59 h | Duration of local anesthesia (median) (back skin of SD rat): 64 h | Local anesthesia onset time (median) (back skin of SD rat): 2 min

CCSCC[N+](CCO)(CCCCCCN1CCCC1C(=O)Nc1c(C)cccc1C)CC(=O)Nc1c(C)cccc1C (stereo not shown) [Example 62 product]
Duration of motor block (rat's sciatic nerve): 21 h | Local anesthesia onset time (rat's sciatic nerve): 5 min | Duration of sensory block (rat's sciatic nerve): 51 h | Duration of local anesthesia (median) (back skin of SD rat): 88 h | Local anesthesia onset time (median) (back skin of SD rat): 1 min

CCCCCCCC[N+](CCCCCCC)(CCCN1CCCCC1C(=O)Nc1c(C)cccc1C)CC(=O)Nc1c(C)cccc1C (stereo not shown) [Example 74 product]
Duration of motor block (rat's sciatic nerve): 17 h | Local anesthesia onset time (rat's sciatic nerve): 1 min | Duration of sensory block (rat's sciatic nerve): 72 h | Duration of local anesthesia (median) (back skin of SD rat): 56 h | Local anesthesia onset time (median) (back skin of SD rat): 1 min

COCC[N+](CCCCO)(CCCCCCN1CCCCC1C(=O)Nc1c(C)cccc1C)CC(=O)Nc1c(C)cccc1C (stereo not shown) [Example 36 product]
Duration of motor block (rat's sciatic nerve): 21 h | Local anesthesia onset time (rat's sciatic nerve): 5 min | Duration of sensory block (rat's sciatic nerve): 52 h | Duration of local anesthesia (median) (back skin of SD rat): 81 h | Local anesthesia onset time (median) (back skin of SD rat): 1 min

CCCCC[N+](CCCS)(CCCCCCCCN1CCCCCCC1C(=O)Nc1c(C)cccc1C)CC(=O)Nc1c(C)cccc1C (stereo not shown) [Example 57 product]
Duration of motor block (rat's sciatic nerve): 13 h | Local anesthesia onset time (rat's sciatic nerve): 5 min | Duration of sensory block (rat's sciatic nerve): 69 h | Duration of local anesthesia (median) (back skin of SD rat): 85 h | Local anesthesia onset time (median) (back skin of SD rat): 1 min

CCCCC[N+](CCO)(CCCCCCN1CCCCC1C(=O)Nc1c(C)cccc1C)CC(=O)Nc1c(C)cccc1C.[Br-] (stereo not shown) [Example 13 product]
Duration of motor block (rat's sciatic nerve): 14 h | Local anesthesia onset time (rat's sciatic nerve): 4 min | Duration of sensory block (rat's sciatic nerve): 55 h | Duration of local anesthesia (median) (back skin of SD rat): 53 h | Local anesthesia onset time (median) (back skin of SD rat): 4 min

CCOCCC[N+](CCCCCCN1CCCCC1C(=O)Nc1c(C)cccc1C)(CCCOCC)CC(=O)Nc1c(C)cccc1C.[Br-] (stereo not shown) [Example 22 product]
Duration of motor block (rat's sciatic nerve): 15 h | Local anesthesia onset time (rat's sciatic nerve): 3 min | Duration of sensory block (rat's sciatic nerve): 47 h | Duration of local anesthesia (median) (back skin of SD rat): 63 h | Local anesthesia onset time (median) (back skin of SD rat): 2 min

CCCOCCCC[N+](CCCCCC(=O)O)(CCCSCCCN1CCCCC1C(=O)Nc1c(C)cccc1C)CC(=O)Nc1c(C)cccc1C (stereo not shown) [Example 29 product]
Duration of motor block (rat's sciatic nerve): 15 h | Local anesthesia onset time (rat's sciatic nerve): 5 min | Duration of sensory block (rat's sciatic nerve): 50 h | Duration of local anesthesia (median) (back skin of SD rat): 73 h | Local anesthesia onset time (median) (back skin of SD rat): 2 min

CCCCC[N+](CCCCCCCN1CCCCCC1C(=O)Nc1c(C)cccc1C)(CCOCC)CC(=O)Nc1c(C)cccc1C (stereo not shown) [Example 70 product]
Duration of motor block (rat's sciatic nerve): 17 h | Local anesthesia onset time (rat's sciatic nerve): 2 min | Duration of sensory block (rat's sciatic nerve): 53 h | Duration of local anesthesia (median) (back skin of SD rat): 75 h | Local anesthesia onset time (median) (back skin of SD rat): 4 min

Cc1cccc(C)c1NC(=O)C[N+](CCO)(CCCCO)CCCCCCN1CCCC1C(=O)Nc1c(C)cccc1C (stereo not shown) [Example 60 product]
Duration of motor block (rat's sciatic nerve): 20 h | Local anesthesia onset time (rat's sciatic nerve): 1 min | Duration of sensory block (rat's sciatic nerve): 54 h | Duration of local anesthesia (median) (back skin of SD rat): 66 h | Local anesthesia onset time (median) (back skin of SD rat): 2 min

Cc1cccc(C)c1NC(=O)C[N+]1(CCCCCCN2CCCCC2C(=O)Nc2c(C)cccc2C)CCOCC1 (stereo not shown) [Example 52 product]
Duration of motor block (rat's sciatic nerve): 15 h | Local anesthesia onset time (rat's sciatic nerve): 2 min | Duration of sensory block (rat's sciatic nerve): 56 h | Duration of local anesthesia (median) (back skin of SD rat): 85 h | Local anesthesia onset time (median) (back skin of SD rat): 3 min

Cc1cccc(C)c1NC(=O)C[N+]1(CCCSCCCN2CCCCC2C(=O)Nc2c(C)cccc2C)CC(C)OC(C)C1 (stereo not shown) [Example 58 product]
Duration of motor block (rat's sciatic nerve): 16 h | Local anesthesia onset time (rat's sciatic nerve): 3 min | Duration of sensory block (rat's sciatic nerve): 57 h | Duration of local anesthesia (median) (back skin of SD rat): 71 h | Local anesthesia onset time (median) (back skin of SD rat): 2 min

CCCCC[N+](CCCCCO)(CCCCCCN1CCCCC1C(=O)Nc1c(C)cccc1C)CC(=O)Nc1c(C)cccc1C.[Br-] (stereo not shown) [Example 12 product]
Duration of motor block (rat's sciatic nerve): 11 h | Local anesthesia onset time (rat's sciatic nerve): 5 min | Duration of sensory block (rat's sciatic nerve): 42 h | Duration of local anesthesia (median) (back skin of SD rat): 66 h | Local anesthesia onset time (median) (back skin of SD rat): 3 min

CCOCC[N+](CCCCO)(CCCCCCN1CCCCC1C(=O)Nc1c(C)cccc1C)CC(=O)Nc1c(C)cccc1C (stereo not shown) [Example 35 product]
Duration of motor block (rat's sciatic nerve): 13 h | Local anesthesia onset time (rat's sciatic nerve): 2 min | Duration of sensory block (rat's sciatic nerve): 54 h | Duration of local anesthesia (median) (back skin of SD rat): 92 h | Local anesthesia onset time (median) (back skin of SD rat): 2 min

Cc1cccc(C)c1NC(=O)C[N+](CCCCO)(CCCCO)CCCCCCN1CCC1C(=O)Nc1c(C)cccc1C (stereo not shown) [Example 66 product]
Duration of motor block (rat's sciatic nerve): 10 h | Local anesthesia onset time (rat's sciatic nerve): 1 min | Duration of sensory block (rat's sciatic nerve): 60 h | Duration of local anesthesia (median) (back skin of SD rat): 87 h | Local anesthesia onset time (median) (back skin of SD rat): 1 min

CCCCCCCCCC[N+](CO)(CCOCCN1CCCCC1C(=O)Nc1c(C)cccc1C)CC(=O)Nc1c(C)cccc1C (stereo not shown) [Example 72 product]
Duration of motor block (rat's sciatic nerve): 10 h | Local anesthesia onset time (rat's sciatic nerve): 1 min | Duration of sensory block (rat's sciatic nerve): 65 h | Duration of local anesthesia (median) (back skin of SD rat): 72 h | Local anesthesia onset time (median) (back skin of SD rat): 1 min
